This is an account of results in publication PMC4788259 (PLoS Neglected Tropical Diseases, 2016).

Each structure is given as a SMILES string. Like-named read-outs stand apart in the source and are kept apart here.

For assay [1], the system named is adult worms. Set-up: method as in PMID 24416463. To be noted: in vitro; read-out: IC50 against adult worms; cited from earlier work.
The subject of assay [2] is E. multilocularis germinal layer cells. Nature of the assay: CellTiter-Glo viability assay on germinal layer cell cultures. Conditions: Echinococcus multilocularis, 120 h, 5 days, read-out: E.m. GL cells (IC50). It counts as cell-based. On the procedure: To assess the effects of MMV665807 on the viability of parasite cells, germinal layer cells were extracted according to Spiliotis et al. After overnight aggregate formation, 15 units of cells were distributed to a black 384 well plate (Nunc, Thermo Scientific, Reinach, Switzerland) in 12.5 μL medium. A concentration series (final concentrations of 3, 1, 0.3, 0.1, 0.03, 0.01 μM) of MMV665807, MMV665794 and mefloquine were prepared in medium and added 1:2 to the cells. For mefloquine, the concentration range was adjusted in a subsequent setup up to 100 μM. As negative control, DMSO was added accordingly. After 5 days of culture at 37°C under humid nitrogen atmosphere, 25 μL CellTiter-Glo (Promega, Dübendorf, Switzerland) including 1% TritonX-100 was added. Plates were incubated for 15 minutes on a shaker at room temperature and complete disruption of all cell aggregates was checked for before measurement of luminescence on a 2300 Enspire multilabel reader (Perkin-Elmer). Mean values and standard deviations were calculated and DMSO values set to 100% viability. The IC50 value was calculated in Microsoft Excel 2010 after logit-log transformation and averages as well as standard deviations of four independent setups were calculated.
(Cellular ATP, detected with luciferase, serves as a proxy for viable cell number.)

Assay [3] deals with E. multilocularis metacestodes. Nature of the assay: PGI assay: phosphoglucose isomerase release from damaged metacestodes. The class given is cell-based, Echinococcus multilocularis. Conditions: PGI assay, 10-0.01 μM, 5 days. The method, boiled down: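 E. multilocularis metacestode vesicles (strain H95, grown in BALB/c mice, 2–4 mm diameter) were exposed in vitro to compounds for 5 days. Damage was read as phosphoglucose isomerase released into the medium. Initial screening used 10 μM in single wells, with 0.1% DMSO as negative control. EC50 values were derived from this read-out.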

Assay [4] deals with Reuber rat hepatoma (RH) cells. Nature of the assay: alamarBlue viability assay on RH cells. To be noted: 120 h, 5 days. The class given is cell-based. On the procedure:
(§1) For testing growth inhibitory effects on confluent host cells, cells were seeded in 96-well plates (10,000 cells per well for HFF and 50,000 cells per well for RH cells), in DMEM containing FBS (10%) and antibiotics (100 U penicillin, 100 μg streptomycin and 0.25 μg amphotericin B per mL medium) and were cultured overnight at 37°C, 5% CO2. Thereafter the drugs (10 μM) were added and diluted in a serial 1:2 dilutions down to 20 nM. The concentration range was further adjusted in subsequent setups. For testing growth inhibitory effects on proliferating cells, cells were seeded at 1,000 (HFF) and 5,000 (RH) cells per well, and were allowed to attach for 5 hours at 37°C before addition of the drugs. After 5 days of culture, cell viability was assessed by alamarBlue assay.
In general terms: Alamar Blue is a resazurin reagent that responds to reducing activity.

Assay [5] relates to newly transformed schistosomula. The arrangement: method as in PMID 24416463. To be noted: in vitro; read-out: IC50 against newly transformed schistosomula; cited from earlier work.
Assay [6] relates to human foreskin fibroblasts (HFF). Nature of the assay: alamarBlue viability assay on HFF. The class given is cell-based. To be noted: Fibroblast, 120 h, 5 days. On the procedure:
as §1

The subject of assay [7] is E. multilocularis metacestode vesicles. Nature of the assay: microbe, parasite or virus in culture. To be noted: Echinococcus multilocularis, 288 h, read-out: mean viability.
The test system of assay [8] is E. multilocularis metacestodes. To be noted: PGI assay; cited from earlier work.

A word on the IC50: it is the concentration that gives 50% inhibition. As usually defined, the EC50 is the midpoint of the concentration-response curve. `FC(F)(F)c1cccc(Nc2nc3ccccc3nc2Nc2cccc(C(F)(F)F)c2)c1` [MMV665794]: the IC50 in assay [1] was 1.1 µM; in assay [2] it was 5.8 ± 0.16 µM; in assay [4] (confluent cells, read-out: Confluent RH (IC50)), 0.8 ± 0.15 µM; in assay [4] (proliferating cells, read-out: Preconfluent RH (IC50)) it was 1.1 ± 0.18 µM; in assay [5], over 33.3 µM; in assay [6] (confluent cells, read-out: Confluent HFF (IC50)), 21.5 ± 0.17 µM. Besides, in assay [6] (proliferating cells, read-out: Preconfluent HFF (IC50)), the 50% inhibitory concentration (IC50) was 5.9 ± 0.21 µM. Besides, the concentration for a half-maximal effect (EC50) in assay [3] (Echinococcus multilocularis, 120 h) was under 5 µM; in assay [3] it was 2.8 ± 0.53 µM.
In general, viability refers to the share of living cells, or the viability signal relative to a control. For `OC(c1cc(C(F)(F)F)nc2c(C(F)(F)F)cccc12)C1CCCCN1` (stereo not shown) [Mefloquine, mefloquine, reference compound], the IC50 in assay [2] is 13.8 ± 0.33 µM. Moreover, in assay [7], the viability at 0.1 µM was determined as 59.7%, the viability at 0.2 µM came out at 74.3%, the viability at 0.4 µM is 67.9% and the viability at 0.8 µM came out at 70.9%. In assay [7], the viability at 1.6 µM turned out to be 75%, the viability at 3.1 µM amounted to 63.5%, the viability at 6.3 µM was found to be 65.8% and the viability at 12.5 µM is 79.4%. In addition, in assay [7], the viability at 25 µM came out at 83.1%, the viability at 50 µM was determined as 5.25% and the viability at 100 µM stood at 8.49%. Also, the EC50 in assay [8] was over 30 µM.
